Where two headings read alike, the source gives them in different places.
How the values were obtained:
[1] = system: amoxicillin/clarithromycin/metronidazole - susceptible strains of Helicobacter pylori; assay: Bacteriostatic activity (MIC) against susceptible strains; type: cell-based; conditions: for MIC: Helicobacter pylori, read-out: MIC
[2] = system: clarithromycin and/or metronidazole - intermediate or resistant strains of Helicobacter pylori; assay: Bacteriostatic activity (MIC) against intermediate or resistant strains; type: cell-based; conditions: Helicobacter pylori, read-out: MIC
Helicobacter pylori [3] = system: Helicobacter pylori
Helicobacter pylori [4] = assay: microbe, parasite or virus in culture

C[S+]([O-])CCCCN=C=S (stereo not drawn) [Sulforaphane, 4-methylsulfinylbutyl isothiocyanate]
−1.18 log10CFU: Actual reductions (log10CFU) (Helicobacter pylori [3]; HP 2, 24 h, 1x MIC)
−1.20 log10CFU: Actual reductions (log10CFU) (Helicobacter pylori [3]; HP 2, 24 h, 5x MIC) | Actual reductions (log10CFU) (Helicobacter pylori [3]; HP 2, 48 h, 1x MIC) | Actual reductions (log10CFU) (Helicobacter pylori [3]; HP 2, 48 h, 5x MIC)
−1.17 log10CFU: Actual reductions (log10CFU) (Helicobacter pylori [3]; HP 2, 4 h, 10x MIC)
8 µg/mL: MIC ([2]; H. pylori strain no 43)
0 log10CFU: Actual reductions (log10CFU) (Helicobacter pylori [3]; HP 2, 2 h, 1x MIC) | Actual reductions (log10CFU) (Helicobacter pylori [3]; HP 2, 2 h, 5x MIC) | Actual reductions (log10CFU) (Helicobacter pylori [3]; HP 2, 2 h, 10x MIC)
0.125 µg/mL: MIC ([2]; H. pylori strain no 41)
−1.40 log10CFU: Actual reductions (log10CFU) (Helicobacter pylori [3]; HP 2, 8 h, 20x MIC) | Actual reductions (log10CFU) (Helicobacter pylori [3]; HP 2, 24 h, 20x MIC) | Actual reductions (log10CFU) (Helicobacter pylori [3]; HP 2, 48 h, 10x MIC) | Actual reductions (log10CFU) (Helicobacter pylori [3]; HP 2, 48 h, 20x MIC)
4 h: Time (h) at which 99.9% intracellular killing was observed (Helicobacter pylori [3]; HP 3, 1 × MIC, tested in triplicate) | Time (h) at which 99.9% intracellular killing was observed (Helicobacter pylori [3]; HP 3, 5 × MIC, tested in triplicate) | Time (h) at which 99.9% intracellular killing was observed (Helicobacter pylori [3]; HP 3, 10 × MIC, tested in triplicate) | Time (h) at which 99.9% intracellular killing was observed (Helicobacter pylori [3]; HP 4, 20 × MIC, tested in duplicate, not definitive)
−0.79 log10CFU: Actual reductions (log10CFU) (Helicobacter pylori [3]; HP 2, 4 h, 1x MIC)
4 µg/mL: MIC ([1]; H. pylori strain no 2) | MIC ([1]; H. pylori strain no 4) | MIC ([1]; H. pylori strain no 5) | MIC ([1]; H. pylori strain no 12) | MIC ([1]; H. pylori strain no 13) | MIC ([1]; H. pylori strain no 31) | MIC ([2]; H. pylori strain no 33) | MIC ([2]; H. pylori strain no 35) | MIC ([2]; H. pylori strain no 36) | MIC ([2]; H. pylori strain no 40) | MIC ([2]; H. pylori strain no 42) | MIC ([2]; H. pylori strain no 47) | MIC (Helicobacter pylori [4]; strain HP 3)
1 µg/mL: MIC ([1]; H. pylori strain no 16) | MIC ([1]; H. pylori strain no 24) | MIC ([2]; H. pylori strain no 45)
−1.34 log10CFU: Actual reductions (log10CFU) (Helicobacter pylori [3]; HP 2, 24 h, 10x MIC)
0.06 µg/mL: MIC ([1]; H. pylori strain no 6) | MIC ([1]; H. pylori strain no 7) | MIC ([1]; H. pylori strain no 10) | MIC ([1]; H. pylori strain no 14) | MIC ([1]; H. pylori strain no 15) | MIC ([1]; H. pylori strain no 22) | MIC ([1]; H. pylori strain no 23) | MIC ([1]; H. pylori strain no 27) | MIC ([1]; H. pylori strain no 30) | MIC (Helicobacter pylori [4]; strain HP 4)
2 µg/mL: MIC ([1]; H. pylori strain no 1) | MIC ([1]; H. pylori strain no 3) | MIC ([1]; H. pylori strain no 9) | MIC ([1]; H. pylori strain no 11) | MIC ([1]; H. pylori strain no 19) | MIC ([1]; H. pylori strain no 29) | MIC ([1]; H. pylori strain no 32) | MIC ([2]; H. pylori strain no 38) | MIC ([2]; H. pylori strain no 46) | MIC (Helicobacter pylori [4]; strain HP 1) | MIC (Helicobacter pylori [4]; strain HP 2)
−0.12 log10CFU: Actual reductions (log10CFU) (Helicobacter pylori [3]; HP 2, 2 h, 20x MIC)
as effective, if not more effective: inhibiting the growth of H. pylori compared to traditional antibiotics ([1]; versus amoxycillin, clarithromycin and metronidazole, several strains (Tables 1 and 2))
8 h: Time (h) at which 99.9% intracellular killing was observed (Helicobacter pylori [3]; HP 1, 1 × MIC, tested in triplicate) | Time (h) at which 99.9% intracellular killing was observed (Helicobacter pylori [3]; HP 1, 5 × MIC, tested in triplicate) | Time (h) at which 99.9% intracellular killing was observed (Helicobacter pylori [3]; HP 1, 10 × MIC, tested in triplicate) | Time (h) at which 99.9% intracellular killing was observed (Helicobacter pylori [3]; HP 1, 20 × MIC, tested in triplicate) | Time (h) at which 99.9% intracellular killing was observed (Helicobacter pylori [3]; HP 4, 1 × MIC, tested in duplicate, not definitive) | Time (h) at which 99.9% intracellular killing was observed (Helicobacter pylori [3]; HP 4, 5 × MIC, tested in duplicate, not definitive) | Time (h) at which 99.9% intracellular killing was observed (Helicobacter pylori [3]; HP 4, 10 × MIC, tested in duplicate, not definitive)
2 h: Time (h) at which 99.9% intracellular killing was observed (Helicobacter pylori [3]; HP 3, 20 × MIC, tested in triplicate)
−0.90 log10CFU: Actual reductions (log10CFU) (Helicobacter pylori [3]; HP 2, 4 h, 5x MIC) | Actual reductions (log10CFU) (Helicobacter pylori [3]; HP 2, 8 h, 1x MIC) | Actual reductions (log10CFU) (Helicobacter pylori [3]; HP 2, 8 h, 5x MIC)
−1.30 log10CFU: Actual reductions (log10CFU) (Helicobacter pylori [3]; HP 2, 4 h, 20x MIC) | Actual reductions (log10CFU) (Helicobacter pylori [3]; HP 2, 8 h, 10x MIC)
0.5 µg/mL: MIC ([1]; H. pylori strain no 8) | MIC ([1]; H. pylori strain no 17) | MIC ([1]; H. pylori strain no 18) | MIC ([1]; H. pylori strain no 20) | MIC ([1]; H. pylori strain no 21) | MIC ([1]; H. pylori strain no 25) | MIC ([1]; H. pylori strain no 26) | MIC ([1]; H. pylori strain no 28) | MIC ([2]; H. pylori strain no 34) | MIC ([2]; H. pylori strain no 37) | MIC ([2]; H. pylori strain no 39) | MIC ([2]; H. pylori strain no 44)
